Measurements published in patent US12110288B2, “MASP-2 inhibitors and methods of use” (Omeros Corporation, priority 2019, dated 2024).
Counter-ions that a name gives are not always drawn.

Molecular target: T1, MASP-2 (CCP1-CCP2-SP) (Homo sapiens, UniProt O00187)
T1 construct: 15 μL of Enzyme MASP-2 (CCP1-CCP2-SP) in Assay Buffer
Test: Enzymatic Assay for MASP-2
Format: biochemical
Details: fluorogenic substrate based on C2 cleavage site, room temperature, 20 mM HEPES pH 7.4
How it was run: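 Fluorogenic substrate modelled on the C2 cleavage site, run at room temperature in 20 mM HEPES pH 7.4, 140 mM NaCl, 0.1% Tween 20; compounds were added from DMSO serial dilutions before enzyme and substrate. Reactions ran 20 min and were stopped with 0.1 M acetic acid before fluorescence was read. % activity was normalised to DMSO-only and no-enzyme controls; IC50 was taken as Ki, with tight- or slow-binding inhibitors handled separately.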

T1 sequence (O00187 445-686 limits assumed): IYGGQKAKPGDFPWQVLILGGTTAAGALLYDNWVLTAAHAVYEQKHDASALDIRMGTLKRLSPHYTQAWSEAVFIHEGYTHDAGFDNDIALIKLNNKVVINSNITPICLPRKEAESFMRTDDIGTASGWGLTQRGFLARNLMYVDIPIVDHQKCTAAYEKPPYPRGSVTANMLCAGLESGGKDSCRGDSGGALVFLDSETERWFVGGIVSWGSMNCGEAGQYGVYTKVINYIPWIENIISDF
T1 sequence (O00187 298-444 partner limits assumed): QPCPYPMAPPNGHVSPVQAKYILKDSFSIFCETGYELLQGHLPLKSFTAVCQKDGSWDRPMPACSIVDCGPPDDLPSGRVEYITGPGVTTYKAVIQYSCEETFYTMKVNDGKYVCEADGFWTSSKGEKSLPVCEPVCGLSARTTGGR

SMILES | Ki
O=C(Cn1c(-c2ccccc2)cnc(NCC2(c3ccccc3)CC2)c1=O)NCc1cc2cnccc2[nH]1 [Compound 52, N-((1H-Pyrrolo[3,2-c]pyridin-2-yl)methyl)-2-(2-oxo-6-phenyl-3-(((1-phenylcyclopropyl)methyl)amino)pyrazin-1(2H)-yl)acetamide trifluoroacetate] | < 500 nM
O=C(Cn1c(-c2cn[nH]c2)cnc(NCCc2ccccc2)c1=O)NCc1cc2cnccc2[nH]1 [Compound 102, N-((1H-Pyrrolo[3,2-c]pyridin-2-yl)methyl)-2-(2-oxo-3-(phenethylamino)-6-(1H-pyrazol-4-yl)pyrazin-1(2H)-yl)acetamide] | < 500 nM
Cc1nc(N)ccc1CNC(=O)Cn1c(-c2ccccc2)ncc(NCCc2ccccc2)c1=O [Compound 6, N-((6-Amino-2-Methylpyridin-3-yl)Methyl)-2-(6-Oxo-5-(Phenethylamino)-2-Phenylpyrimidin-1(6H)-yl)Acetamide] | < 500 nM
O=C(Cn1c(-c2cccc(C3(O)CC3)c2)cnc(NCCc2ccccc2)c1=O)NCc1cc2cnccc2[nH]1 [Compound 98, N-((1H-Pyrrolo[3,2-c]pyridin-2-yl)methyl)-2-(6-(3-(1-hydroxycyclopropyl)phenyl)-2-oxo-3-(phenethylamino)pyrazin-1(2H)-yl)acetamide] | < 500 nM
O=C(Cn1c(-c2cccc(C(O)C(F)(F)F)c2)cnc(NCCc2ccccc2)c1=O)NCc1cc2cnccc2[nH]1 (centres unmarked) [Compound 97, N-((1H-Pyrrolo[3,2-c]pyridin-2-yl)methyl)-2-(2-oxo-3-(phenethylamino)-6-(3-(2,2,2-trifluoro-1-hydroxyethyl)phenyl)pyrazin-1(2H)-yl)acetamide] | < 500 nM
CCOCCCNc1ncc(-c2cnn(C)c2)n(CC(=O)NCc2cc3cnccc3[nH]2)c1=O [Compound 129, trifluoroacetate] | < 500 nM
Cn1cc(-c2cnc(NCC(F)(F)c3ccccc3)c(=O)n2CC(=O)NCc2cc3cnccc3[nH]2)cn1 [Compound 123, N-((1H-Pyrrolo[3,2-c]Pyridin-2-yl)Methyl)-2-(3-((2,2-Difluoro-2-Phenylethyl)Amino)-6-(1-Methyl-1H-Pyrazol-4-yl)-2-Oxopyrazin-1(2H)-yl)Acetamide Trifluoroacetate] | < 500 nM
O=C(Cn1c(-c2cnn3c2CCCC3)cnc(NCCc2ccccc2)c1=O)NCc1cc2cnccc2[nH]1 [Compound 116, N-((1H-Pyrrolo[3,2-c]pyridin-2-yl)methyl)-2-(2-oxo-3-(phenethylamino)-6-(4,5,6,7-tetrahydropyrazolo[1,5-α]pyridin-3-yl)pyrazin-1(2H)-yl)acetamide] | < 500 nM
CC(C)Nc1cnc(NCCc2ccccc2)c(=O)n1CC(=O)NCc1cc2cnccc2[nH]1 [Compound 160] | 2500 to 10000 nM
O=C(Cn1c(-c2ccccc2)cnc(NCC2(c3ccc(Cl)cc3)CC2)c1=O)NCc1cnc2c(c1)CNC2 [Compound 69, 2-(3-(((1-(4-Chlorophenyl)Cyclopropyl)Methyl)Amino)-2-Oxo-6-Phenylpyrazin-1(2H)-yl)-N-((6,7-Dihydro-5H-Pyrrolo[3,4-5]Pyridin-3-yl)Methyl)Acetamide Trifluoroacetate] | < 500 nM
Cc1nc(N)ccc1CNC(=O)Cn1c(-c2ccc(N)cc2)cnc(NCCc2ccccc2)c1=O [Compound 31, N-((6-Amino-2-Methylpyridin-3-yl)Methyl)-2-(6-(4-Aminophenyl)-2-Oxo-3-(Phenyethylamino)Pyrazin-1-(2H)-yl)Acetamide] | < 500 nM
CC(O)c1cccc(-c2cnc(NCCc3ccccc3)c(=O)n2CC(=O)NCc2cc3cnccc3[nH]2)c1 (centres unmarked) [Compound 100, N-((1H-Pyrrolo[3,2-c]Pyridin-2-yl)Methyl)-2-(6-(3-(1-Hydroxyethyl)Phenyl)-2-Oxo-3-(Phenethylamino)Pyrazin-1(2H)-yl)Acetamide] | < 500 nM
O=C(Cn1c(-c2cnn(C3CCC3)c2)cnc(NCCc2ccccc2)c1=O)NCc1cc2cnccc2[nH]1 [Compound 110, N-((1H-Pyrrolo[3,2-c]pyridin-2-yl)methyl)-2-(6-(1-cyclobutyl-1H-pyrazol-4-yl)-2-oxo-3-(phenethylamino)pyrazin-1(2H)-yl)acetamide] | < 500 nM
Cc1nc(N)ccc1CNC(=O)Cn1c(-c2ccccc2)c(Cl)nc(NC2COC2c2ccccc2)c1=O (centres unmarked) [Compound 42] | 500 to 2500 nM
O=C(Cn1c(-c2cnn(C3CNC3)c2)cnc(NCCc2ccccc2)c1=O)NCc1cc2cnccc2[nH]1 [Compound 112, N-((1H-Pyrrolo[3,2-c]Pyridin-2-yl)Methyl)-2-(6-(1-(Azetidin-3-yl)-1H-Pyrazol-4-yl)-2-Oxo-3-(Phenethylamino)Pyrazin-1(2H)-yl)Acetamide Hydrochloride] | < 500 nM
Cc1nc(N)ccc1CNC(=O)Cn1c(-c2ccnc(N)c2)cnc(NCCc2ccccc2)c1=O [Compound 84, N-((6-Amino-2-Methylpyridin-3-yl)Methyl)-2-(6-(2-Aminopyridin-4-yl)-2-Oxo-3-(Phenethylamino)Pyrazin-1(2H)-yl)Acetamide] | < 500 nM
Cn1cc(-c2cnc(NCCC(F)F)c(=O)n2CC(=O)NCc2cc3cnccc3[nH]2)cn1 [Compound 125, N-((1H-Pyrrolo[3,2-c]pyridin-2-yl)methyl)-2-(3-((3,3-difluoropropyl)amino)-6-(1-methyl-1H-pyrazol-4-yl)-2-oxopyrazin-1(2H)-yl)acetamide trifluoroacetate] | < 500 nM
Cc1nc(N)ccc1CNC(=O)Cn1c(-c2ccccc2)c(Cl)nc(N2CCCC2)c1=O [Compound 40, N-((6-Amino-2-methylpyridin-3-yl)methyl)-2-(5-chloro-2-oxo-6-phenyl-3-(pyrrolidin-1-yl)pyrazin-1(2H)-yl)acetamide] | < 500 nM
CCCCOc1cnc(NCCc2ccccc2)c(=O)n1CC(=O)NCc1cc2cnccc2[nH]1 [Compound 162, N-((1H-Pyrrolo[3,2-c]Pyridin-2-yl)Methyl)-2-(6-Butoxy-2-Oxo-3-(Phenethylamino)Pyrazin-1(2H)-yl)Acetamide] | < 500 nM
C=C(C)c1cccc(-c2cnc(NCCc3ccccc3)c(=O)n2CC(=O)NCc2cc3cnccc3[nH]2)c1 [Compound 91, N-((1H-Pyrrolo[3,2-c]Pyridin-2-yl)Methyl)-2-(2-Oxo-3-(Phenethylamino)-6-(3-(Prop-1-en-2-yl)Phenyl)Pyrazin-1(2H)-yl)Acetamide] | < 500 nM
O=C(Cn1c(-c2ccccc2)cnc(NCCc2cccc(F)c2)c1=O)NCc1cc2cnccc2[nH]1 [Compound 145, N-((1H-Pyrrolo[3,2-c]pyridin-2-yl)methyl)-2-(3-((3-fluorophenethyl)amino)-2-oxo-6-phenylpyrazin-1(2H)-yl)acetamide] | < 500 nM
Cc1nc(N)ccc1CNC(=O)Cn1c(Cc2ccccc2)cnc(NCCc2ccccc2)c1=O [Compound 19, N-((6-amino-2-methylpyridin-3-yl)methyl)-2-(6-benzyl-2-oxo-3-(phenethylamino)pyrazin-1(2H)-yl)acetamide trifluoroacetate] | < 500 nM
COc1ccc(CNc2ncc(-c3ccccc3)n(CC(=O)NCc3cc4cnc(C)cc4[nH]3)c2=O)cc1 [Compound 77, 2-(3-((4-Methoxybenzyl)amino)-2-oxo-6-phenylpyrazin-1(2H)-yl)-N-((6-methyl-1H-pyrrolo[3,2-c]pyridin-2-yl)methyl)acetamide trifluoroacetate] | < 500 nM
